Key:
CTGF = CTGF mRNA levels in mesangial cells by Northern Blot, Phosphor Imager quantification; type: cell-based, human
Text: CTGF, is a 38 kD cysteine-rich secreted peptide known to modulate ECM production in some extrarenal cell types. In Example 1, SSH analysis identified a cDNA fragment of 250 bp which was identical to bases 814-1061 of the human CTGF cDNA. Induction of CTGF mRNA expression in primary human mesangial cells cultured in high glucose was investigated by Northern Blotting as shown in FIG. 1.
A 2.4 kb band was detected following hybridisation with the CTGF probe. All of the values were normalised to GAPDH levels and the results are representative of three independent experiments.
To assess the role of TGF-β1 as a stimulus for CTGF expression in response to high glucose, cells were incubated in either 5 mM glucose or 30 mM glucose plus 1 μl/ml anti-TGF-β1 antibody for seven days with three changes of medium. Cells were serum starved for 24 hr in RPMI 1640 and 0.5% FBS. 10 ng/ml TGF-β1 Calbiochem) or 10 ng/ml TGF-β1 preadsorbed with 1 μg/ml neutralising anti-TGF-β1 polyclonal antibody were subsequently added for 24 hr.
The role of PKC on CTGF expression in response to high glucose was investigated by culturing the mesangial cells in either 5 mM, 30 mM glucose or 30 mM glucose and the PKC inhibitor GF 102903X.
FIG. 7 is an autoradiograph of CTGF mRNA levels analysed by Northern Blot and depicts the results obtained when mesangial cells were exposed to TGF-β1 (10 ng/ml) for 24 hr in the presence (lane 3) and absence (lane 2) of anti-TGF-β1 neutralising antibody (1 μg/ml). Cells cultured in RPMI 1640 and 0.5% FBS for 24 hr served as control (lane 1). A 2.4 kb band was detected following hybridisation to the CTGF probe. The blot was stripped and reprobed with GAPDH. The relative amount of CTGF mRNA as estimated by Phosphor Imager quantification (FIG. 8). Values were normalised to GAPDH levels and the results are representative of two independent experiments.
(§1) FIG. 9 is an autoradiograph of CTGF mRNA levels analysed by Northern Blot and depicts the results obtained when mesangial cells were exposed to 5 mM glucose (lane 1), 30 mM glucose (lane 2) and 30 mM glucose in the presence of anti-TGF-β1 neutralising antibodies (1 μg/ml) (lane 3) for seven days. A 2.4 kb band was detected following hybridisation to the CTGF probe. The blot was stripped and probed with GAPDH. The relative amount of CTGF MRNA as estimated by Phosphor Imager quantification (FIG. 10). […]
as §1, with “11” for “9”, “PKC inhibitor GF102903X (10 μM)” for “the presence of anti-TGF-β1 neutralising antibodies (1 μg/ml)”, “four” for “seven”, “The blot was stripped and probed with GAPDH.” left out, “rnRNA” for “MRNA”, “12).” for “10).”

[1] = test system: primary human mesangial cells; test: Northern Blot of genes differentially induced in mesangial cells cultured in high glucose or mannitol (Table 1); type: cell-based; set-up: key to Differential Expression of IHG-1 mRNA: *: detected in mesangial cells cultured in 5 mM glucose+25 mM mannitol and 30 mM glucose, but not in 5 mM glucose; settings: 25 mM mannitol + 5 mM glucose, relative to 5 mM glucose
Protocol: Primary human mesangial cells were cultured as previously reported (Brady, H. R., et al. (1992) Kidney Int. 42, 480-487 and Denton, M. D., et al. (1991) Am. J. Physiol. 261, F1071-F1079). Cells (passage 7-11) were maintained in medium (Clonetics) containing either 5 mM or 30 mM D-glucose for 7 days. Culture medium was replenished three times during this period to maintain glucose levels in the desired range. To control for the effects of hyperosmolarity, mesangial cells were cultured in media containing 5 mM glucose supplemented with 25 mM mannitol. […] Northern Blots performed using formaldehyde denaturation according to standard protocols and quantitated using a Phosphor Imager (Biorad) confirmed differential expression of fifteen of the sixteen subcloned fragments as indicated in Table 1. ^c refers to the differential expression of each gene based on Northern Blot analysis of primary human mesangial cells cultured under indicated conditions relative to expression in cells cultured in 5 mM glucose. Values were obtained by Phosphor-Imaging and were normalised by comparison with glyceraldehyde-3-phosphate dehydrogenase (GAPDH) (*, detected in mesangial cells cultured in 5 mM glucose+25 mM mannitol and 30 mM glucose, but not in 5 mM glucose, fold expression is degree of expression relative to that found in 5 mM glucose). Within a diabetic milieu, high glucose levels may perturb cellular function through glucose-specific actions or by increasing the osmolarity of extracellular fluids. The role of hyperosmolarity as a mediator of gene induction by high glucose was assessed by comparing mRNA levels, as determined by Northern Blot, in cells cultured in either 30 mM glucose or in 5 mM glucose supplemented with 25 mM mannitol. […] High glucose and mannitol-induced hyperosmolarity afforded equivalent induction of the other products.

gremlin = test: Gremlin mRNA levels in mesangial cells by Northern Blot; type: cell-based; settings: human recombinant TGF-β1 10 ng/ml, 24 h, serum restricted mesangial cells
Protocol: A) Primary cultures of human mesangial cells were propagated as described in Example 1, except that the medium was supplemented with 5% FBS. Treatment of cultures with glucose was carried out as described in Example 1. […]
Northern Blot analysis as described further below was performed on RNA extracted from mesangial cells grown in either 5 mM (‘normal’) or 30 mM (‘high’) glucose using the ORF of gremlin and IHG-2 probes. Both probes detected a 2-fold increase in gene expression under high glucose conditions as depicted in FIG. 16.
Northern Blots were performed using formaldehyde denaturation according to standard protocols and quantitated using a phosphorimager (Biorad). PCR products used to generate the probes for northern analysis were amplified using primers for the open reading frame (ORF) of gremlin (sense: […] (SEQ ID NO: 17); antisense […] (SEQ ID NO: 18)), and for IHG-2 (sense: […] (SEQ ID NO 19); antisense: […] (SEQ ID NO: 20)). Fibronectin and GAPDH probes were generated as described in Example 2
As indicated above, both high ambient glucose concentrations and cyclic mechanical strain provoke TGF-β1 production by mesangial cells in vitro and TGF-β1 appears to be a major stimulus for mesangial matrix accumulation in diabetic glomeruli in vivo. […]

mesangial cells = test: Effect of rhCTGF on mesangial cell matrix production (RT-PCR); type: cell-based, human; settings: rhCTGF 8 ng/ml, 24 hr, serum starved mesangial cells
Protocol: To investigate the direct effects of CTGF up-regulation on matrix production, in particular the effect on collagens I and IV and fibronectin, mesangial cells were incubated with recombinant CTGF protein.
Mesangial cells were serum starved for 24 hr in RPMI 1640 medium supplemented with 0.5 % fetal bovine serum (FBS) and then exposed to rhCTGF (8 ng/ml) (a generous gift from Dr. Gary Grotendorst) for 24 hr (Kreisberg, J. I. and Ayo, S. H. (1993). Kidney Int. 43, 109-113). Total RNA was extracted and chromosomal DNA was removed using DNase 1 (Gibco-BRL). Equal amounts of cDNA were subsequently amplified by PCR using specific primers for GAPDH (Gen/EMBL accession no. AJ005371, sense: […] (SEQ ID NO: 7); antisense: […] (SEQ ID NO: 8), Collagen I (Gen/EMBL accession no. X55525, sense: […] (SEQ ID NO: 9); antisense: […] (SEQ ID NO: 10)), Collagen IV (Gen/EMBL accession no. M11315, sense: […] (SEQ ID NO: 11); antisense: […] (SEQ ID NO: 12) and fibronectin (Gen/EMBL accession no. X0276 1, sense: CGAAATCACAGCCAGTAG (SEQ ID NO. 13), antisense: ATCACATCCACACGGTAG (SEQ ID NO: 14)).
FIG. 3 depicts ethidium-stained panels of a 2% (w/v) agarose gel containing 10 μl of each PCR reaction after electrophoresis.

Molecule: CN(C)CCCn1cc(C2=C(c3c[nH]c4ccccc34)C(=O)NC2=O)c2ccccc21 [GF102903X]
- effect on high glucose-induced CTGF expression (CTGF; 30 mM glucose, four days, inhibitor 10 μM): partial inhibition
- effect on TGF-β1-induced CTGF expression (CTGF; TGF-β1 10 ng/ml, 24 hr, antibody 1 μg/ml, GF102903X data not shown): without effect

Molecule: OC[C@@H](O)[C@@H](O)[C@H](O)[C@H](O)CO [mannitol]
- mesangial cell CTGF expression compared with high glucose (CTGF; 25 mM mannitol + 5 mM glucose versus 30 mM glucose, in vitro): less mesangial cell CTGF expression in vitro than high glucose
- Differential Expression of IHG-1 mRNA [1]: *
- Differential Expression of ARP3 mRNA ([1]; normalised to GAPDH): 1.0-fold
- Differential Expression of CAP mRNA ([1]; normalised to GAPDH): 1.7-fold
- Differential Expression of CTGF mRNA ([1]; normalised to GAPDH): 1.5-fold
- Differential Expression of Caldesmon mRNA ([1]; normalised to GAPDH): 2.8-fold
- Differential Expression of Fibronectin mRNA ([1]; normalised to GAPDH): 1.5-fold
- Differential Expression of IHG-2 mRNA ([1]; normalised to GAPDH): 2.0-fold
- Differential Expression of MRLC mRNA ([1]; normalised to GAPDH): 1.6-fold
- Differential Expression of PAI-1 mRNA (2.0 kb) ([1]; normalised to GAPDH): 1.0-fold
- Differential Expression of PAI-1 mRNA (3.0 kb) ([1]; normalised to GAPDH): 2.0-fold
- Differential Expression of Profilin mRNA ([1]; normalised to GAPDH): 2.3-fold
- Differential Expression of RBM3 mRNA ([1]; normalised to GAPDH): 1.4-fold
- Differential Expression of T-plastin mRNA ([1]; normalised to GAPDH): 1.8-fold
- Differential Expression of TCTP mRNA ([1]; normalised to GAPDH): 2.5-fold
- Differential Expression of Thrombospondin mRNA ([1]; normalised to GAPDH): 8.0-fold
- Differential Expression of Ubiquitin mRNA ([1]; normalised to GAPDH): 1.7-fold

Molecule: TGF-β1: human recombinant transforming growth factor β1 (Calbiochem)
- induction of CTGF mRNA levels (CTGF; TGF-β1 10 ng/ml, 24 hr, serum starved mesangial cells): potent inducer
- gremlin mRNA levels (gremlin): augmented

B1: rhCTGF: recombinant human connective tissue growth factor protein (protein, UniProt P29279 27-349, looked up)
CCN family member 2: QNCSGPCRCPDEPAPRCPAGVSLVLDGCGCCRVCAKQLGELCTERDPCDPHKGLFCHFGSPANRKIGVCTAKDGAPCIFGGTVYRSGESFQSSCKYQCTCLDGAVGCMPLCSMDVRLPSPDCPFPRRVKLPGKCCEEWVCDEPKDQTVVGPALAAYRLEDTFGPDPTMIRANCLVQTTEWSACSKTCGMGISTRVTNDNASCRLEKQSRLCMVRPCEADLEENIKKGKKCIRTPKISKPIKFELSGCTSMKTYRAKFCGVCTDGRCCTPHRTTTLPVEFKCPDGEVMKKNMMFIKTCACHYNCPGDNDIFESLYYRKMYGDMA
- mesangial cell collagens I and IV and fibronectin mRNA (RT-PCR) (mesangial cells): up-regulates
